Results on two molecules are retold here after paper PMC9329436, “Optimization of the 4-anilinoquin(az)oline scaffold as epidermal growth factor receptor (EGFR) inhibitors for chordoma utilizing a toxicology profiling assay platform” (Scientific Reports, 2022).

Type in all cases: biochemical
The target in assay [1] is 320 wild-type protein kinases (Homo sapiens, UniProt Q13627). To be noted: DYRK1A, singlicate. From the text: (§1) Table S4. Profiling of two compounds at two concentrations against 320 wild-type protein kinases; singlicate measurement; Residual activities (% of control).
Assay [2] has as its target 320 wild-type protein kinases (Homo sapiens, UniProt Q07912). To be noted: singlicate.
Text: as §1

The target of assay [3] is T1, 320 wild-type protein kinases (Homo sapiens, UniProt Q13043).
T1 sequence (Q13043 1-487): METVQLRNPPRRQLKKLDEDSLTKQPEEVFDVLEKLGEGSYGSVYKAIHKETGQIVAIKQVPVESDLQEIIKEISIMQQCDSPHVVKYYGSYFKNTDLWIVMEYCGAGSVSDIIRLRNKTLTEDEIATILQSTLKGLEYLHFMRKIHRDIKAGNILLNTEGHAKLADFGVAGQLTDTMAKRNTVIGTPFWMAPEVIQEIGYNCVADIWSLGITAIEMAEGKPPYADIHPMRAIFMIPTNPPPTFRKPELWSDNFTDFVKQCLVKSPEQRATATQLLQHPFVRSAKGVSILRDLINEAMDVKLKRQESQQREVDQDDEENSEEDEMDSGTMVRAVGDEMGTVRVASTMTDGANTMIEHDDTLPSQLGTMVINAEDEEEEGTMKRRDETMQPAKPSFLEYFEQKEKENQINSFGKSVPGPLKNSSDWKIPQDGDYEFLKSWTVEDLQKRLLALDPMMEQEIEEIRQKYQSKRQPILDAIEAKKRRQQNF
To be noted: singlicate.
Text: as §1

In assay [4] the target is T2, 320 wild-type protein kinases (Homo sapiens, UniProt Q13976).
T2 sequence (Q13976 1-671): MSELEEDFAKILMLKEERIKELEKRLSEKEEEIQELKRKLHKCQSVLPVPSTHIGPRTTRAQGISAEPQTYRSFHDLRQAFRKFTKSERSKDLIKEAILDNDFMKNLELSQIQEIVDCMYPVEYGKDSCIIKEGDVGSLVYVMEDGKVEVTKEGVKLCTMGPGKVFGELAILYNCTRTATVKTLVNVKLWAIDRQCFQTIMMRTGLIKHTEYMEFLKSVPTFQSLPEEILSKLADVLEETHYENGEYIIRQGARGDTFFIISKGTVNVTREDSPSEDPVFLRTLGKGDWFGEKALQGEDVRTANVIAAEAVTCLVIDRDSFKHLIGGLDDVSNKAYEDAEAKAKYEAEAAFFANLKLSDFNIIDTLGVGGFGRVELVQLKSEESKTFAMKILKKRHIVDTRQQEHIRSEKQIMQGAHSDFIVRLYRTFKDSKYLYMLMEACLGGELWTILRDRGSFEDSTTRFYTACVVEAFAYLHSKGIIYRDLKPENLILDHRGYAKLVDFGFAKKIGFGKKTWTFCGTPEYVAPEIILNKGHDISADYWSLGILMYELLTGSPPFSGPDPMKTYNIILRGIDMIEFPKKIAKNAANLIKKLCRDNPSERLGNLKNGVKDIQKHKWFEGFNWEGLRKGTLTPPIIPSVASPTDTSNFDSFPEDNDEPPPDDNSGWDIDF
To be noted: kinase PRKG1, singlicate.
Text: as §1

For assay [5], the target named is 320 wild-type protein kinases (Homo sapiens, UniProt Q9NQU5). To be noted: singlicate.
Text: as §1

Assay [6] has as its target 320 wild-type protein kinases (Homo sapiens, UniProt Q16539). To be noted: p38-alpha, singlicate.
Text: as §1

Assay [7] addresses T3, 320 wild-type protein kinases (Homo sapiens, UniProt Q8TDC3).
T3 sequence (Q8TDC3 1-778): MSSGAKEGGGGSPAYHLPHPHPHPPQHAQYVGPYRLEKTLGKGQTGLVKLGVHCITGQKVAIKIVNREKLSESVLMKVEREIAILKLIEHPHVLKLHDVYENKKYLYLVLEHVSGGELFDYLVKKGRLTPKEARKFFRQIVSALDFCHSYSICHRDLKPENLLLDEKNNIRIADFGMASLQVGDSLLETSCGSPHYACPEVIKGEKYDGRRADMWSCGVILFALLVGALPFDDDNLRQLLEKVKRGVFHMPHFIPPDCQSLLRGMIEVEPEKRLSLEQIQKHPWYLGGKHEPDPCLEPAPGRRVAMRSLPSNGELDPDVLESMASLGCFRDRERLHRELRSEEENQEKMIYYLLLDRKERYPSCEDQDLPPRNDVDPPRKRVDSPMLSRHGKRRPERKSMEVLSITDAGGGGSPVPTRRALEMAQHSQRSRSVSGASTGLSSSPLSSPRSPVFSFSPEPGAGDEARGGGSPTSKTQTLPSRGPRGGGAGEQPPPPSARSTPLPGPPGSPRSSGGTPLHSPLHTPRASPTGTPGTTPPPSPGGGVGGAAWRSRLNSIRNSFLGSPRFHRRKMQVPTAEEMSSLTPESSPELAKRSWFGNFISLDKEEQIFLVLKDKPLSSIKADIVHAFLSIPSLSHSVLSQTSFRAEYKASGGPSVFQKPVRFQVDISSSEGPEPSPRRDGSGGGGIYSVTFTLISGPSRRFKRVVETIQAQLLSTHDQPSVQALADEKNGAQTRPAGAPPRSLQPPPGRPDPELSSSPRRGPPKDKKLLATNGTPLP
To be noted: singlicate.
Text: as §1

Assay [8] concerns the target 320 wild-type protein kinases (Homo sapiens, UniProt P53355). To be noted: singlicate.
Text: as §1

In assay [9] the target is 320 wild-type protein kinases (Homo sapiens, UniProt P49841). To be noted: GSK3-beta, singlicate.
Text: as §1

For assay [10], the target named is 320 wild-type protein kinases (Homo sapiens, UniProt Q9UQM7). To be noted: CAMK2A, singlicate.
Text: as §1

Assay [11] concerns the target 320 wild-type protein kinases (Homo sapiens, UniProt Q00534). To be noted: singlicate.
Text: as §1

Read-outs that look alike come from different tables or passages of the source.

320 wild-type protein kinases (Homo sapiens, UniProt Q9UQM7), sequence (Q9UQM7 whole entry): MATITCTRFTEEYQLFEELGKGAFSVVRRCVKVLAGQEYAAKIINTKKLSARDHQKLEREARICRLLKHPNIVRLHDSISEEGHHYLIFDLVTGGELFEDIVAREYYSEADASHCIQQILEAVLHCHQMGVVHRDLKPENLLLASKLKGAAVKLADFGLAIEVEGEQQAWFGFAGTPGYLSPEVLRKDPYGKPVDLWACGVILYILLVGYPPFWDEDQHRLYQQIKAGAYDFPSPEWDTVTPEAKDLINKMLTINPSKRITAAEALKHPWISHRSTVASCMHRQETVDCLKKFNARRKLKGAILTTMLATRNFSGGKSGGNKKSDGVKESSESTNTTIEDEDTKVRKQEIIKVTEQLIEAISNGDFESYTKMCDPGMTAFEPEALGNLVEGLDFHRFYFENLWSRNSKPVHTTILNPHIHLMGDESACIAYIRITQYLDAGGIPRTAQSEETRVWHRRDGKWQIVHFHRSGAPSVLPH
320 wild-type protein kinases (Homo sapiens, UniProt Q16539), sequence (Q16539 whole entry): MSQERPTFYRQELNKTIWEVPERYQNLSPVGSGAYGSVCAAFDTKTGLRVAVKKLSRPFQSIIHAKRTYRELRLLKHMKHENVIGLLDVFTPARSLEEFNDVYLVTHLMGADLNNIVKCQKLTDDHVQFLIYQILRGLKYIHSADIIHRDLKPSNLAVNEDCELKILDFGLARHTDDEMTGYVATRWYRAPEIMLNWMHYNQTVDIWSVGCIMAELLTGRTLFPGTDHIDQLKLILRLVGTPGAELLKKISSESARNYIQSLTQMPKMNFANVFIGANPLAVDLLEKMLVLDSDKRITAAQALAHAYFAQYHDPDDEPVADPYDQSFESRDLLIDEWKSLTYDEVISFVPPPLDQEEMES
320 wild-type protein kinases (Homo sapiens, UniProt Q00534), sequence (Q00534 whole entry): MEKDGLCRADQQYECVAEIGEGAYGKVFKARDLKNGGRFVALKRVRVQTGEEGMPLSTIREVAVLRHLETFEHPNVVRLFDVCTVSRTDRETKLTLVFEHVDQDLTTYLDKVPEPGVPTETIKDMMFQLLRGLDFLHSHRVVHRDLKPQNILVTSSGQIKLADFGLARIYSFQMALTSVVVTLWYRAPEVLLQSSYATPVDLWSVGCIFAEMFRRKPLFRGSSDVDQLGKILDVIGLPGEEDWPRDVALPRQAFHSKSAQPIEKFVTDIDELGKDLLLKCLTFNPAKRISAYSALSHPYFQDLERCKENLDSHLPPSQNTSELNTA
320 wild-type protein kinases (Homo sapiens, UniProt P53355), sequence (P53355 whole entry): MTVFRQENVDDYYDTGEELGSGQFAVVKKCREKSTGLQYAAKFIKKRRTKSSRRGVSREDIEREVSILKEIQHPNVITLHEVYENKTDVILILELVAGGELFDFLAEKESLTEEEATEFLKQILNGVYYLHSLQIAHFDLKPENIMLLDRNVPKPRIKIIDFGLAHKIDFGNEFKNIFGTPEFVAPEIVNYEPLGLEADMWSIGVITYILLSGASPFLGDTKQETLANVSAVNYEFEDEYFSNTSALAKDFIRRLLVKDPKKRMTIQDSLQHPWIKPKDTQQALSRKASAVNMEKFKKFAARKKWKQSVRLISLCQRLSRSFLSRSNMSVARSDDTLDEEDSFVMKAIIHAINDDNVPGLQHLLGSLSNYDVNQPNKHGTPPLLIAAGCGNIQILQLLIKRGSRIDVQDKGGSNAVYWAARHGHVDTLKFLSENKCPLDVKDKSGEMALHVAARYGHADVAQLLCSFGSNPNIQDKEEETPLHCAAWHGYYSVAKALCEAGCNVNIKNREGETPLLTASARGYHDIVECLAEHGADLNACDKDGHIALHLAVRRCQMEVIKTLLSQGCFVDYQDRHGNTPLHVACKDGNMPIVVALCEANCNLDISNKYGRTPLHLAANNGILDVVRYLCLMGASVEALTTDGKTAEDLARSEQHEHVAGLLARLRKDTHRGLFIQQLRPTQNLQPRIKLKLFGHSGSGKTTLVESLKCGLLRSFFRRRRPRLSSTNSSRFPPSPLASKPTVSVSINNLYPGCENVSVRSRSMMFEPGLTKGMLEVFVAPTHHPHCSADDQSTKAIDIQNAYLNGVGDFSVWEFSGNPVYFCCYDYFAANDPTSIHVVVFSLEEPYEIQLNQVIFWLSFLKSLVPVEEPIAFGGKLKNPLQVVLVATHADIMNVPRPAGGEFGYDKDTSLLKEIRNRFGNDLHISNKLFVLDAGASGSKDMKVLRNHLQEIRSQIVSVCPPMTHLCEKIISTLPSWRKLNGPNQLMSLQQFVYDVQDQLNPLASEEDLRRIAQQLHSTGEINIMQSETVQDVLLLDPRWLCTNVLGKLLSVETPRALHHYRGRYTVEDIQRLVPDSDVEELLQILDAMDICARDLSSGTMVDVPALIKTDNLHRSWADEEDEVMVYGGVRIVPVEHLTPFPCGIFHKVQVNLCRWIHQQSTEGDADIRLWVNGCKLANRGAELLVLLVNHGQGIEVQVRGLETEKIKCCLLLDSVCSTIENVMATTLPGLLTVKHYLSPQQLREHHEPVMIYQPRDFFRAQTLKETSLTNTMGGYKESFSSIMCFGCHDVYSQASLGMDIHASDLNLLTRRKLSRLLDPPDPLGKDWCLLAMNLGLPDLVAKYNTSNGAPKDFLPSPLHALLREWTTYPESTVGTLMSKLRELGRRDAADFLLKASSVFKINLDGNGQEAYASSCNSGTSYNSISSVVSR
320 wild-type protein kinases (Homo sapiens, UniProt Q07912), sequence (Q07912 whole entry): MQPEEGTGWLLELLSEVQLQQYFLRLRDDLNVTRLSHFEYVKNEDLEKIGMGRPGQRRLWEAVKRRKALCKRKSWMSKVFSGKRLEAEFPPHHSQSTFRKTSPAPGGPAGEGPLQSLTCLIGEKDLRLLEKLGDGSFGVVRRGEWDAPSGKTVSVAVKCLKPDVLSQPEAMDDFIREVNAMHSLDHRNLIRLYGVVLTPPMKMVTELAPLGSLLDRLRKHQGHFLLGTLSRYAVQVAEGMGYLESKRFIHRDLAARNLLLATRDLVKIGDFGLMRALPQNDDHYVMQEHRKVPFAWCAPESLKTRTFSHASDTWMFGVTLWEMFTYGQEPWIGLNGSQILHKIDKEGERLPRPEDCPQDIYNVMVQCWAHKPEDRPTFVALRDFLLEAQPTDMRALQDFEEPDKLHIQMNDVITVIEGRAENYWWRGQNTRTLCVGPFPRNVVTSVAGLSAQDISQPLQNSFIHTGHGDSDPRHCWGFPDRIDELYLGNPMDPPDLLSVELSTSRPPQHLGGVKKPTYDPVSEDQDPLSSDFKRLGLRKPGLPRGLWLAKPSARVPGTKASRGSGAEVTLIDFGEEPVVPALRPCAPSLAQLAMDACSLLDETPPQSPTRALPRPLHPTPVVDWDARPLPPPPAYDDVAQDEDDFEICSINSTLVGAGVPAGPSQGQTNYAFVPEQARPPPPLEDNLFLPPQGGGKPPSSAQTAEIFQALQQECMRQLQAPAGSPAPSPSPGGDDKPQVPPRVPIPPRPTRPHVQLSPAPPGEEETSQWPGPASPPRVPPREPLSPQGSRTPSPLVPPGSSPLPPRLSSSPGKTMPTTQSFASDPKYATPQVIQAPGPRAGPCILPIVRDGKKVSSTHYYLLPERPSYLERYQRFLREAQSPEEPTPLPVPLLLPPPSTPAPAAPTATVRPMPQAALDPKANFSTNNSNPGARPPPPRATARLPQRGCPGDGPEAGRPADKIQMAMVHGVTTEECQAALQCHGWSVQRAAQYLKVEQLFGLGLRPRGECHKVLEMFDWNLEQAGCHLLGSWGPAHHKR
320 wild-type protein kinases (Homo sapiens, UniProt P49841), sequence (P49841 whole entry): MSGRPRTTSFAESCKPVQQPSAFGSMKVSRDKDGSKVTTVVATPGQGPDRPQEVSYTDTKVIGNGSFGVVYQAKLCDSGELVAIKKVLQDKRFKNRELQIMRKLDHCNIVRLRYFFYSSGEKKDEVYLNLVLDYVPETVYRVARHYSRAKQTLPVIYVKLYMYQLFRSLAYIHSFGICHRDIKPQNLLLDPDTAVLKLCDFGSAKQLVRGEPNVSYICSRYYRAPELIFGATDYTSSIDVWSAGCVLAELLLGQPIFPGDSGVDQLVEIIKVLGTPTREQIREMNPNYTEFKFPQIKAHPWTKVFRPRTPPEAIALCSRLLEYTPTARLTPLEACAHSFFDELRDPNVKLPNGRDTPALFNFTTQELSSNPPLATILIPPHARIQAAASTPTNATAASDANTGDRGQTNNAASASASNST
320 wild-type protein kinases (Homo sapiens, UniProt Q9NQU5), sequence (Q9NQU5 whole entry): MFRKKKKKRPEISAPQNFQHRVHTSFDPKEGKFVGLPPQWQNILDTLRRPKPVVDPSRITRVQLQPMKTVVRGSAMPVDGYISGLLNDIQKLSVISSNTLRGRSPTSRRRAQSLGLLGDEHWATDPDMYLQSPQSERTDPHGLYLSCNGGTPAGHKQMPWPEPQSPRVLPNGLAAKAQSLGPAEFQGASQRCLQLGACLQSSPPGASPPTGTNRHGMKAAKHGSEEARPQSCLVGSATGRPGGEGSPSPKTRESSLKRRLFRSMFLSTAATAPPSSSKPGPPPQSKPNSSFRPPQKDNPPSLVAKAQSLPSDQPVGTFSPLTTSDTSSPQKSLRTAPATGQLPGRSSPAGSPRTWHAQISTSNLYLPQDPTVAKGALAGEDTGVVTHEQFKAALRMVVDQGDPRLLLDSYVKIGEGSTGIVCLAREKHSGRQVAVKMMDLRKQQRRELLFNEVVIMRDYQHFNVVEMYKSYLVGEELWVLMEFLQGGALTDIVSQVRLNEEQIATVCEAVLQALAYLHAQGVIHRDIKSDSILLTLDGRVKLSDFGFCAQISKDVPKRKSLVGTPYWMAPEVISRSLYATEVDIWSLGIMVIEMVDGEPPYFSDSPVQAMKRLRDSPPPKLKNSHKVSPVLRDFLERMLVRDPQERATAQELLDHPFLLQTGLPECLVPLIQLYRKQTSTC

In the case of `C#Cc1cc(Nc2ncnc3cc(OC)c(OC)cc23)ccc1Cl` [Compound 45], the Residual activity in assay [1] (1.0E-06 M) is 91 % of control; in assay [1] (1.0E-07 M) it was 85 % of control; in assay [2] (ACK1, 1.0E-06 M), 63 % of control; in [2] (ACK1, 1.0E-07 M), 100 % of control; in assay [3] (MST1, 1.0E-06 M) it was 83 % of control; in assay [3] (MST1, 1.0E-07 M), 89 % of control. Also, the Residual activity in assay [5] (PAK6, 1.0E-06 M) is 87 % of control; in assay [5] (PAK6, 1.0E-07 M) it was 98 % of control; in assay [6] (1.0E-06 M), 56 % of control; in assay [6] (1.0E-07 M), 96 % of control; in assay [7] (BRSK1, 1.0E-06 M), 97 % of control; in assay [7] (BRSK1, 1.0E-07 M), 89 % of control. The Residual activity in [8] (DAPK1, 1.0E-06 M) is recorded as 116 % of control; in assay [8] (DAPK1, 1.0E-07 M), 126 % of control; in assay [9] (1.0E-06 M), 85 % of control; in [9] (1.0E-07 M) it was 84 % of control; in assay [10] (1.0E-06 M) it was 101 % of control; in [10] (1.0E-07 M), 104 % of control. Also, the Residual activity in [11] (CDK6/CycD1, 1.0E-06 M) is reported as 86 % of control; in assay [11] (CDK6/CycD1, 1.0E-07 M), 96 % of control; in assay [11] (CDK6/CycD3, 1.0E-06 M), 105 % of control; in [11] (CDK6/CycD3, 1.0E-07 M) it was 95 % of control. Besides, the “Residual activity, PRKG1” value is 101 % of control in [4] (assay conc. 1.0E-06 M) and 106 % of control in assay [4] (assay conc. 1.0E-07 M).

For `C#Cc1cc(Nc2ncnc3cc(I)ccc23)ccc1Cl` [Compound 41], the Residual activity in assay [1] (1.0E-06 M) is recorded as 75 % of control; in [1] (1.0E-07 M), 84 % of control; in assay [2] (ACK1, 1.0E-06 M) it was 98 % of control; in assay [2] (ACK1, 1.0E-07 M), 134 % of control; in assay [3] (MST1, 1.0E-06 M), 84 % of control; in assay [3] (MST1, 1.0E-07 M), 80 % of control. Also, the Residual activity is recorded as 88 % of control in assay [5] (PAK6, 1.0E-06 M); 97 % of control in assay [5] (PAK6, 1.0E-07 M); 71 % of control in assay [6] (1.0E-06 M); 103 % of control in [6] (1.0E-07 M); 91 % of control in [7] (BRSK1, 1.0E-06 M); 100 % of control in assay [7] (BRSK1, 1.0E-07 M). Besides, the Residual activity is listed as 112 % of control in [8] (DAPK1, 1.0E-06 M); 125 % of control in [8] (DAPK1, 1.0E-07 M); 84 % of control in assay [9] (1.0E-06 M); 96 % of control in [9] (1.0E-07 M); 93 % of control in assay [10] (1.0E-06 M); 99 % of control in [10] (1.0E-07 M). Moreover, the Residual activity was 98 % of control in [11] (CDK6/CycD1, 1.0E-06 M); 92 % of control in [11] (CDK6/CycD1, 1.0E-07 M); 103 % of control in assay [11] (CDK6/CycD3, 1.0E-06 M); 102 % of control in assay [11] (CDK6/CycD3, 1.0E-07 M). Further, the “Residual activity, PRKG1” value in assay [4] (assay conc. 1.0E-06 M) is 72 % of control; in assay [4] (assay conc. 1.0E-07 M), 88 % of control.
